# Key:
# [1] = target: T1, HIS-TGFβR1 T204D (Homo sapiens, UniProt P36897, T204D); assay: HTRF probe-displacement assay, HIS-TGFβR1 T204D; format: binding; settings: read-out: TGFβR1 (μM) IC50
# T1 sequence (P36897 34-503 T204D): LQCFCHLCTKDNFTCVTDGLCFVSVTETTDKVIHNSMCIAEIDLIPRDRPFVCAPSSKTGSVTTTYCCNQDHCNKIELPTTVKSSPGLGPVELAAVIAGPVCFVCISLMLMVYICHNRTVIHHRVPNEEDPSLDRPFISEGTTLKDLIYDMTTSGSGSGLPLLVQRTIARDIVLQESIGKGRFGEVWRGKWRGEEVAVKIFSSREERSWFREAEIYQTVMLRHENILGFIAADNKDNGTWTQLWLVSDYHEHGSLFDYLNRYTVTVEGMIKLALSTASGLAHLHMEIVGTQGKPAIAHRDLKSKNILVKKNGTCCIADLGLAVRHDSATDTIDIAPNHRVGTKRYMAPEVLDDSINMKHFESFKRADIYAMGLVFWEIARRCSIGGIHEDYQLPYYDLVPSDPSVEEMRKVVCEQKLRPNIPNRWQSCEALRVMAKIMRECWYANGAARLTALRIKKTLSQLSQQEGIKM
# [2] = target: HIS-TGFβR2 WT (Homo sapiens, UniProt P37173); assay: HTRF probe-displacement assay, HIS-TGFβR2 WT; format: binding
# Sequence of HIS-TGFβR2 WT (P37173 23-567): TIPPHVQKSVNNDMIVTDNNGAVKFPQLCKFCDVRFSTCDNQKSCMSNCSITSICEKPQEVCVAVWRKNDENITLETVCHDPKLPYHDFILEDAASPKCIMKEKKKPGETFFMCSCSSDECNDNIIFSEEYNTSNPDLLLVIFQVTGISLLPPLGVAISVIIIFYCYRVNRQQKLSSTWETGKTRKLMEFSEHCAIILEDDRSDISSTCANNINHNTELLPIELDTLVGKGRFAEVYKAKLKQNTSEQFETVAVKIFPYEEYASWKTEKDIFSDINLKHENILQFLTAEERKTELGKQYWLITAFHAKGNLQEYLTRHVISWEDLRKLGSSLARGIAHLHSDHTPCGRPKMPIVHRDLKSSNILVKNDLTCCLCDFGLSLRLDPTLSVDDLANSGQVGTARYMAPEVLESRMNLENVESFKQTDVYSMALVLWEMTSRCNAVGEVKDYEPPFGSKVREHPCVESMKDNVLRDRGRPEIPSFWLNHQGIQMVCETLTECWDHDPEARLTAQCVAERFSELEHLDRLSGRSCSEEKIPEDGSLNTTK
Structure (SMILES),IC50 [1] [µM],IC50 [2] [µM]
"CC(=O)Nc1cc(-c2[nH]c3c(C(C)O)ccnc3c2-c2cccc(C(F)F)n2)ccn1 (stereo not drawn) [Example 143, N-(4-{3-[6-(Difluoromethyl)pyridin-2-yl]-7-(1-hydroxyethyl)-1H-pyrrolo[3,2-b]pyridin-2-yl}pyridin-2-yl)acetamide]",0.001,2.53
"CC(=O)Nc1cc(-c2[nH]c3cc(Cl)cnc3c2-c2ncc(Cl)s2)ccn1 [Example 168, N-(4-(6-Chloro-3-(5-chlorothiazol-2-yl)-1H-pyrrolo[3,2-b]pyridin-2-yl)pyridin-2-yl)acetamide]",0.0138,1.19
"CC(=O)Nc1cc(-c2[nH]c3c(CO)ccnc3c2-c2ccc(F)nc2)ccn1 [Example 277, N-(4-(3-(6-Fluoropyridin-3-yl)-7-(hydroxymethyl)-1H-pyrrolo[3,2-b]pyridin-2-yl)pyridin-2-yl)acetamide]",0.006,0.01
"COc1ccc(-c2c(-c3ccnc(NC(=O)CN4CCN(C)CC4)c3)[nH]c3cc(Cl)cnc23)cn1 [Example 292, N-(4-(6-chloro-3-(6-methoxypyridin-3-yl)-1H-pyrrolo[3,2-b]pyridin-2-yl)pyridin-2-yl)-2-(4-methylpiperazin-1-yl)acetamide]",0.001,1.51
"COc1ccc(-c2c(-c3ccnc(NC(=O)CN4CC[C@H](O)C4)c3)[nH]c3cc(OC)cnc23)nc1 [Example 121, 2-[(3S)-3-Hydroxypyrrolidin-1-yl]-N-{4-[6-methoxy-3-(5-methoxypyridin-2-yl)-1H-pyrrolo[3,2-b]pyridin-2-yl]pyridin-2-yl}acetamide]",0.001,> 15
"COc1ccc(-c2c(-c3ccnc(NC(C)=O)c3)[nH]c3cc(-c4c(C)noc4C)cnc23)nc1 [Example 93, N-{4-[6-(Dimethyl-1,2-oxazol-4-yl)-3-(5-methoxypyridin-2-yl)-1H-pyrrolo[3,2-b]pyridin-2-yl]pyridin-2-yl}acetamide]",0.003,> 15
COc1ccc2[nH]c(-c3ccnc(NC(C)=O)c3)c(-c3cccc(Cl)n3)c2n1 [Example 77],0.033,> 15
"CCOc1ccc(-c2c(-c3ccnc(NC(C)=O)c3)[nH]c3cc(Cl)cnc23)nc1 [Example 253, N-(4-(6-Chloro-3-(5-ethoxypyridin-2-yl)-1H-pyrrolo[3,2-b]pyridin-2-yl)pyridin-2-yl)acetamide]",0.004,> 15
"COc1cnc2c(-c3nc(C)ccc3F)c(-c3ccnc(NC(C)=O)c3)[nH]c2c1 [Example 111, N-(4-(3-(3-Fluoro-6-methylpyridin-2-yl)-6-methoxy-1H-pyrrolo[3,2-b]pyridin-2-yl)pyridin-2-yl)acetamide]",0.002,2.42
"COC(=O)c1cc(Cl)nc2c(-c3ccc(F)cn3)c(-c3ccnc(NC(C)=O)c3)[nH]c12 [Example 69, Methyl 5-chloro-2-(2-acetamidopyridin-4-yl)-3-(5-fluoropyridin-2-yl)-1H-pyrrolo[3,2-b]pyridine-7-carboxylate]",0.76,> 15
"CC(=O)Nc1cc(-c2[nH]c3cccnc3c2-c2cccc(OC(F)F)n2)ccn1 [Example 174, N-(4-(3-(6-(Difluoromethoxy)pyridin-2-yl)-1H-pyrrolo[3,2-b]pyridin-2-yl)pyridin-2-yl)acetamide]",0.0034,> 15
"CC(=O)Nc1cc(-c2[nH]c3cccnc3c2-c2ccc(F)c(C)n2)ccn1 [Example 23, N-{4-[3-(5-Fluoro-6-methylpyridin-2-yl)-1H-pyrrolo[3,2-b]pyridin-2-yl]pyridin-2-yl}acetamide]",0.003,0.68
"COc1ccc(-c2c(-c3ccnc(NC(C)=O)c3)[nH]c3cc(N4CCOCC4)cnc23)nc1 [Example 164, N-(4-(3-(5-Methoxypyridin-2-yl)-6-morpholino-1H-pyrrolo[3,2-b]pyridin-2-yl)pyridin-2-yl)acetamide]",0.0053,> 15
"CCN1CCN(CC(=O)Nc2cc(-c3[nH]c4cc(Cl)cnc4c3-c3ccc(OC)cn3)ccn2)CC1 [Example 251, N-(4-(6-Chloro-3-(5-methoxypyridin-2-yl)-1H-pyrrolo[3,2-b]pyridin-2-yl)pyridin-2-yl)-2-(4-ethylpiperazin-1-yl)acetamide]",0.005,> 15
"COC(=O)Nc1cc(-c2[nH]c3cccnc3c2-c2ccc(OC)nc2)ccn1 [Example 84, Methyl N-{4-[3-(6-methoxypyridin-3-yl)-1H-pyrrolo[3,2-b]pyridin-2-yl]pyridin-2-yl}carbamate]",0.002,0.13
"COC(=O)c1ccnc2c(-c3ccc(F)cn3)c(-c3ccnc(NC(C)=O)c3)[nH]c12 [Example 71, Methyl 2-(2-acetamidopyridin-4-yl)-3-(5-fluoropyridin-2-yl)-1H-pyrrolo[3,2-b]pyridine-7-carboxylate]",0.27,4.38
"COc1ccc(-c2c(-c3ccnc(N)c3)[nH]c3cccnc23)cn1 [Example 52, 4-[3-(6-Methoxypyridin-3-yl)-1H-pyrrolo[3,2-b]pyridin-2-yl]pyridin-2-amine]",0.041,0.45
"CC(=O)Nc1cc(-c2[nH]c3c(C4CCN(C)CC4)ccnc3c2-c2cccc(C)n2)ccn1 [Example 138, N-{4-[7-(1-Methylpiperidin-4-yl)-3-(6-methylpyridin-2-yl)-1H-pyrrolo[3,2-b]pyridin-2-yl]pyridin-2-yl}acetamide]",0.2,> 15
"COc1ccc(-c2c(-c3ccnc(NC(C)=O)c3)[nH]c3c(C)ccnc23)cn1 [Example 215, N-(4-(3-(6-Methoxypyridin-3-yl)-7-methyl-1H-pyrrolo[3,2-b]pyridin-2-yl)pyridin-2-yl)acetamide]",0.0885,0.999

# Continued, values first:
IC50 [1] [µM],IC50 [2] [µM],Structure (SMILES)
0.001,1.77,"CC(=O)Nc1cc(-c2[nH]c3c(C(C)(C)O)ccnc3c2-c2cccc(C(F)F)n2)ccn1 [Example 154, N-(4-{3-[6-(Difluoromethyl)pyridin-2-yl]-7-(2-hydroxypropan-2-yl)-1H-pyrrolo[3,2-b]pyridin-2-yl}pyridin-2-yl)acetamide]"
0.0882,> 15,"COc1ccc(-c2c(-c3ccnc(NC(=O)CN4CCN(C)CC4)c3)[nH]c3cc(Cl)cnc23)nc1C [Example 238, N-(4-(6-Chloro-3-(5-methoxy-6-methylpyridin-2-yl)-1H-pyrrolo[3,2-b]pyridin-2-yl)pyridin-2-yl)-2-(4-methylpiperazin-1-yl)acetamide]"
0.0005,1.38,"CC(=O)Nc1cc(-c2[nH]c3c(C)ccnc3c2-c2nc(C(F)F)cs2)ccn1 [Example 220, N-(4-(3-(4-(Difluoromethyl)thiazol-2-yl)-7-methyl-1H-pyrrolo[3,2-b]pyridin-2-yl)pyridin-2-yl)acetamide]"
0.001,0.361,"CC(=O)Nc1cc(-c2[nH]c3c(C(O)C(C)C)ccnc3c2-c2cccc(C(F)F)n2)ccn1 (stereo not drawn) [Example 144, N-(4-{3-[6-(Difluoromethyl)pyridin-2-yl]-7-(1-hydroxy-2-methylpropyl)-1H-pyrrolo[3,2-b]pyridin-2-yl}pyridin-2-yl)acetamide]"
0.005,4.31,"COc1cnc(-c2c(-c3ccnc(NC(C)=O)c3)[nH]c3cccnc23)cn1 [Example 194, N-(4-(3-(5-Methoxypyrazin-2-yl)-1H-pyrrolo[3,2-b]pyridin-2-yl)pyridin-2-yl)acetamide]"
0.011,0.709,"CC(=O)Nc1cc(-c2[nH]c3c(CO)ccnc3c2-c2ccc(Cl)nc2)ccn1 [Example 278, N-(4-(3-(6-Chloropyridin-3-yl)-7-(hydroxymethyl)-1H-pyrrolo[3,2-b]pyridin-2-yl)pyridin-2-yl)acetamide]"
0.004,> 15,"CC(=O)Nc1cc(-c2[nH]c3c(-c4c(C)noc4C)ccnc3c2-c2cccc(C(F)F)n2)ccn1 [Example 130, N-(4-{3-[6-(Difluoromethyl)pyridin-2-yl]-7-(dimethyl-1,2-oxazol-4-yl)-1H-pyrrolo[3,2-b]pyridin-2-yl}pyridin-2-yl)acetamide]"
6.52,> 15,"COc1ccc(-c2c(-c3ccnc(NC(C)=O)c3)[nH]c3cc(C)cnc23)nc1 [Example 184, N-(4-(3-(5-Methoxypyridin-2-yl)-6-methyl-1H-pyrrolo[3,2-b]pyridin-2-yl)pyridin-2-yl)acetamide]"
0.0443,7.56,"CC(=O)Nc1cc(-c2[nH]c3cccnc3c2-c2ccnc(C#N)c2)ccn1 [Example 190, N-(4-(3-(2-Cyanopyridin-4-yl)-1H-pyrrolo[3,2-b]pyridin-2-yl)pyridin-2-yl)acetamide]"
0.0587,0.424,"CC(=O)Nc1cc(-c2[nH]c3cccnc3c2-c2cnn(C)c2)ccn1 [Example 187, N-(4-(3-(1-Methyl-1H-pyrazol-4-yl)-1H-pyrrolo[3,2-b]pyridin-2-yl)pyridin-2-yl)acetamide]"
0.007,0.083,"COc1ccc(-c2c(-c3ccnc(NC(C)=O)c3)[nH]c3c(C#N)ccnc23)cn1 [Example 80, N-(4-(7-Cyano-3-(6-methoxypyridin-3-yl)-1H-pyrrolo[3,2-b]pyridin-2-yl)pyridin-2-yl)acetamide]"

# Reference: patent US9708316B2 (BRISTOL-MYERS SQUIBB COMPANY, priority 2014, dated 2017)
